Reference: patent US11878965B2, “Inhibitors of peptidylarginine deiminases” (Gilead Sciences, Inc., priority 2020, dated 2024)

Target: human PAD4 (Homo sapiens (Human), UniProt Q9UM07)
Assay: In Vitro PAD4 BAEE Biochemical Assay
Conditions: human PAD4, BAEE substrate; 5 nM PAD4, 2 mM calcium chloride, 3 mM BAEE; geometric mean of multiple experiments
Method: The PCR product was ligated into linearized pET-SUMO vector (Invitrogen, Carlsbad, CA), which is part of the Champion™ pET SUMO Protein Expression System. After sequence verification for the correct orientation, the pET-SUMO-hPAD4 expression plasmid was transformed into BL21(DE3) cells.
E. Coli BL21(DE3) cells were inoculated in LB medium with kanamycin at 37° C. until A600 nm reached about 0.5. Protein expression was induced by addition of 0.5 mM IPTG (final) and continued overnight at 16° C. at 220 rpm.
Cells were harvested by centrifugation at 5000 rpm for 10 minutes at 4° C. The pellet was resuspended in 300 ml lysis buffer (20 mM Tris-HCl, pH 8.0, 1 mM EDTA, 500 mM NaCl, 1 mM (tris(2-carboxyethyl)phosphine) (TCEP), 10% glycerol, and 1% Triton X100 and EDTA free protease inhibitor) and lysed by 3× passage through a microfluidizer (Microfluidics, Newton, MA) at 18,000 psi. The cell lysate was clarified by centrifugation at 30,000 rpm for 60 minutes at 4° C. The supernatant was applied to a 5 ml Ni-HP (GE HealthCare Cat #17524701) column preequilibrated in Ni-A buffer (20 mM Tris-HCl, pH 8.0, 20 mM Imidazole, 1 mM TCEP, 10% glycerol, and 400 mM NaCl). Bound protein was eluted with a 0-100% linear gradient of 100 mL Ni-B buffer (Ni A buffer+0.5 M Imidazole).
The His-Sumo tag was cleaved using sumo protease (Thermo Fisher Cat #: 12588018) while dialyzing in buffer (20 mM Tris-HCl, pH 8.0, 1 mM EDTA, 500 mM NaCl, 1 mM TCEP, 10% glycerol). The protein was then reloaded onto a Ni-HP column for a reverse purification step and recovered in flow through fraction. The protein with His-Sumo tag removed was then polished using a 16/60 Superdex-200 gel filtration column with gel filtration buffer (20 mM Tris pH 8.0, NaCl 400 mM and 1 mM TCEP). The fractions containing the protein were pulled and frozen at −80° C.
In Vitro PAD4 BAEE Biochemical Assay
The enzymatic activity of human PAD4 was monitored in a biochemical assay in the presence or absence of compounds using the small peptidyl arginine mimic BAEE (Nα-Benzoyl-L-arginine ethyl ester hydrochloride) as substrate. PAD4 activity led to deimination of BAEE and release of ammonia. Levels of ammonia were monitored by using an amine coupling reaction and were indicative of PAD4 enzymatic activity.
One hundred nanoliters of test compounds dissolved in DMSO at various concentrations were dispensed into a 384-well black OptiPlate using a Labcyte Echo instrument. Ten microliters of a solution of recombinant PAD4 and calcium chloride diluted in PAD4 assay buffer (50 mM MOPS [3-(N-morpholino) propanesulfonic acid], pH 7.6; 50 mM sodium chloride; 0.05% Tween-20; 2 mM dithiothreitol) was added to the compound-containing plate and was incubated for 30 minutes at 25° C. Ten microliters of a solution of BAEE (Sigma-Aldrich #B4500) diluted in PAD4 assay buffer was then added to start the reaction. Final concentrations were 5 nM PAD4, 2 mM calcium chloride, and 3 mM BAEE. The reaction mixture was incubated at 25° C. for 2 hours and was stopped with the addition of 10 microliters of a solution of 75 mM EDTA (Ethylenediaminetetraacetic acid) in PAD4 assay buffer. Thirty microliters of detection solution (5 mM o-phthalaldehyde, 50 mM MOPS [3-(N-morpholino) propanesulfonic acid], pH 7.6; 50 mM sodium chloride; 0.05% Tween-20; 5 mM dithiothreitol) was then added and the reaction was incubated for 1 hour at 25° C. The level of fluorescent thiol-substituted isoindole resulting from the reaction of ammonia, o-phthalaldehyde, and dithiothreitol was measured on an Envision plate reader (PerkinElmer) with 405 nm excitation and 535 nm emission.

Chain of human PAD4 (Q9UM07 2-663): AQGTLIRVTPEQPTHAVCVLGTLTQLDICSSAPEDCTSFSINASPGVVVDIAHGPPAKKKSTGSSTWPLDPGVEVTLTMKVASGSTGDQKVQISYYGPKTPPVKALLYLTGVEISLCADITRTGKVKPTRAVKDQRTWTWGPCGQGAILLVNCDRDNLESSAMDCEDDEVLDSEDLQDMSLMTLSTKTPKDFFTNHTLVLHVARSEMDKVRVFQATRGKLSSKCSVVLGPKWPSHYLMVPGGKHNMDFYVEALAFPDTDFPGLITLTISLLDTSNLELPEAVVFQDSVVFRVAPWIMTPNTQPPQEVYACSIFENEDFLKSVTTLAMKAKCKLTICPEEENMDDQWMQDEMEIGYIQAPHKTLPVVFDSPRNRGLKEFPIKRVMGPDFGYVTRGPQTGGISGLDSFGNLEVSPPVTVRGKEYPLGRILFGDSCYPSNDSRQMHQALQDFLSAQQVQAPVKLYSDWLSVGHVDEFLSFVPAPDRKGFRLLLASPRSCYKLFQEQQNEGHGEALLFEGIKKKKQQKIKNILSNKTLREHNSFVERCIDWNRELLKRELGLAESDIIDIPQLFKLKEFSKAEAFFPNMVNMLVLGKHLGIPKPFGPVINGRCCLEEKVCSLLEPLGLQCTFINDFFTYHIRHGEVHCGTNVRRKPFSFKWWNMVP

Structure (SMILES)	IC50 [µM]
CS(=O)(=O)N(c1ccc2cc(-c3nc4cc(C(=O)N5[C@@H]6CC[C@@H](N)[C@H]5CC6)ccc4n3C3CC3)n(CC3CC3)c2n1)C(F)F [Example 56, N-(2-(5-((1R,2R,5R)-2-amino-8-azabicyclo[3.2.1]octane-8-carbonyl)-1-cyclopropyl-1H-benzo[d]imidazol-2-yl)-1-(cyclopropylmethyl)-1H-pyrrolo[2,3-b]pyridin-6-yl)-N-(difluoromethyl) methanesulfonamide]	0.0362
COc1cc(C(=O)N2[C@H]3CC[C@@H]2[C@H](N)C3)cc2nc(-c3cc4ccc(N5[C@@H](C)CCCS5(=O)=O)nc4n3CC3CC3)n(C)c12 [Example 103, ((1R,2R,4S)-2-amino-7-azabicyclo[2.2.1]heptan-7-yl) (2-(1-(cyclopropylmethyl)-6-((S)-3-methyl-1,1-dioxido-1,2-thiazinan-2-yl)-1H-pyrrolo[2,3-b]pyridin-2-yl)-7-methoxy-1-methyl-1H-benzo[d]imidazol-5-yl) methanone]	0.0223
COc1cc(C(=O)N2CCC[C@@H](N)C2)cc2nc(-c3cc4ccc(N(CC(F)(F)F)S(C)(=O)=O)nc4n3CC3CC3)n(C)c12 [Example 16, (R)-N-(2-(5-(3-aminopiperidine-1-carbonyl)-7-methoxy-1-methyl-1H-benzo[d]imidazol-2-yl)-1-(cyclopropylmethyl)-1H-pyrrolo [2,3-b]pyridin-6-yl)-N-(2,2,2-trifluoroethyl) methanesulfonamide]	0.316
COc1cc(C(=O)N2CCC[C@@H](N)C2)cc2nc(-c3cc4ccc(N(C)S(=O)(=O)c5ccccc5)nc4n3CC3CC3)n(C)c12 [Example 12, (R)-N-(2-(5-(3-aminopiperidine-1-carbonyl)-7-methoxy-1-methyl-1H-benzo[d]imidazol-2-yl)-1-(cyclopropylmethyl)-1H-pyrrolo [2,3-b]pyridin-6-yl)-N-methylbenzenesulfonamide]	0.225
COc1cc(C(=O)N2[C@H]3CC[C@@H]2[C@H](N)C3)cc2nc(-c3cc4ccc(N(C)S(C)(=O)=O)nc4n3CC3CC3)n(C)c12 [Example 79, N-(2-(5-((1R,2R,4S)-2-amino-7-azabicyclo[2.2.1]heptane-7-carbonyl)-7-methoxy-1-methyl-1H-benzo[d]imidazol-2-yl)-1-(cyclopropylmethyl)-1H-pyrrolo[2,3-b]pyridin-6-yl)-N-methyl-methanesulfonamide]	0.0336
COc1cc(C(=O)N2CCC[C@@H](N)[C@H]2C)cc2nc(-c3cc4ccc(N(C)S(C)(=O)=O)nc4n3CC3CC3)n(CC3CC3)c12 [Example 24, N-(2-(5-((2R,3R)-3-amino-2-methylpiperidine-1-carbonyl)-1-(cyclopropylmethyl)-7-methoxy-1H-benzo[d]imidazol-2-yl)-1-(cyclopropylmethyl)-1H-pyrrolo [2,3-b]pyridin-6-yl)-N-methylmethanesulfonamide]	0.124
COc1cc(C(=O)N2CCC[C@@H](N)C2)cc2nc(-c3cc4ccc(N(C)S(=O)(=O)C5CC5)nc4n3CC3CC3)n(C)c12 [Example 8, (R)-N-(2-(5-(3-aminopiperidine-1-carbonyl)-7-methoxy-1-methyl-1H-benzo[d]imidazol-2-yl)-1-(cyclopropylmethyl)-1H-pyrrolo [2,3-b]pyridin-6-yl)-N-methylcyclopropanesulfonamide]	0.19
COc1cc(C(=O)N2[C@H]3CC[C@@H]2[C@H](N)C3)cc2nc(-c3cc4ccc([C@@H](C)NC(=O)c5ccc(F)cc5)nc4n3CC3CC3)n(C)c12 [Example 208, N-((R)-1-(2-(5-((1R,2R,4S)-2-amino-7-azabicyclo[2.2.1]heptane-7-carbonyl)-7-methoxy-1-methyl-1H-benzo[d]imidazol-2-yl)-1-(cyclopropylmethyl)-1H-pyrrolo[2,3-b]pyridin-6-yl)ethyl)-4-fluorobenzamide]	0.138

More lines, now with the values ahead:

IC50 [µM]	Structure (SMILES)
1.57	COc1cc(C(=O)N2CCC[C@@H](N)[C@H]2C)cc2nc(-c3cc4ccc(N=S(C)(C)=O)nc4n3CC3CC3)n(C)c12 [Example 95, ((2-(5-((2R,3R)-3-amino-2-methylpiperidine-1-carbonyl)-7-methoxy-1-methyl-1H-benzo[d]imidazol-2-yl)-1-(cyclopropylmethyl)-1H-pyrrolo [2,3-b]pyridin-6-yl)imino)dimethyl-16-sulfanone]
0.0824	COc1cc(C(=O)N2C[C@H](N)CCN2C)cc2nc(-c3cc4ccc([C@@H](C)NC(=O)C5(C(F)F)CC5)nc4n3CC3CC3)n(C)c12 [Example 191, N-((R)-1-(2-(5-((R)-5-amino-2-methylhexahydropyridazine-1-carbonyl)-7-methoxy-1-methyl-1H-benzo[d]imidazol-2-yl)-1-(cyclopropylmethyl)-1H-pyrrolo[2,3-b]pyridin-6-yl)ethyl)-1-(difluoromethyl)cyclopropane-1-carboxamide]
0.147	COc1cc(C(=O)N2C[C@H](N)CCN2C)cc2nc(-c3cc4ccc([C@@H](C)NC(=O)c5c(C)cccc5C)nc4n3CC3CC3)n(C)c12 [Example 172, N-((R)-1-(2-(5-((R)-5-amino-2-methylhexahydropyridazine-1-carbonyl)-7-methoxy-1-methyl-1H-benzo[d]imidazol-2-yl)-1-(cyclopropylmethyl)-1H-pyrrolo[2,3-b]pyridin-6-yl)ethyl)-2,6-dimethylbenzamide]
0.173	CCN(c1ccc2cc(-c3nc4cc(C(=O)N5CC(N)CCC5C)cc(OC)c4n3C)n(CC3CC3)c2n1)S(C)(=O)=O (stereo not shown) [Example 29, N-(2-(5-(5-amino-2-methylpiperidine-1-carbonyl)-7-methoxy-1-methyl-1H-benzo[d]imidazol-2-yl)-1-(cyclopropylmethyl)-1H-pyrrolo [2,3-b]pyridin-6-yl)-N-ethylmethanesulfonamide]
26.4	C[C@H](CN)NC(=O)c1cc2nc(-c3cc4ccc(N(C(F)F)S(C)(=O)=O)nc4n3CC3CC3)n(C)c2cc1F [Example 94, (R)-N-(1-aminopropan-2-yl)-2-(1-(cyclopropylmethyl)-6-((N-(difluoromethyl)methyl)sulfonamido)-1H-pyrrolo[2,3-b]pyridin-2-yl)-6-fluoro-1-methyl-1H-benzo[d]imidazole-5-carboxamide]
4.05	COc1cc(C(=O)N2C[C@H](N)CCN2C)cc2nc(-c3cc4ccc([C@@H](C)NC(=O)C5(c6ccc(C(F)(F)F)cc6)CC5)nc4n3CC3CC3)n(C)c12 [Example 163, N-((R)-1-(2-(5-((R)-5-amino-2-methylhexahydropyridazine-1-carbonyl)-7-methoxy-1-methyl-1H-benzo[d]imidazol-2-yl)-1-(cyclopropylmethyl)-1H-pyrrolo[2,3-b]pyridin-6-yl)ethyl)-1-(4-(trifluoromethyl)phenyl)cyclopropane-1-carboxamide]
0.812	CN(c1ccc2cc(-c3nc4cc(C(=O)N5CCC[C@@H](N)C5)cc5c4n3CCO5)n(CC3CC3)c2n1)S(C)(=O)=O [Example 89, (R)-N-(2-(7-(3-aminopiperidine-1-carbonyl)-3,4-dihydro-5-oxa-1,2a-diazaacenaphthylen-2-yl)-1-(cyclopropylmethyl)-1H-pyrrolo[2,3-b]pyridin-6-yl)-N-methylmethanesulfonamide]
0.379	CCN(C(C)=O)c1ccc2cc(-c3nc4cc(C(=O)N5CCC[C@@H](N)C5)cc(OC)c4n3C)n(CC3CC3)c2n1 [Example 115, (R)-N-(2-(5-(3-aminopiperidine-1-carbonyl)-7-methoxy-1-methyl-1H-benzo[d]imidazol-2-yl)-1-(cyclopropylmethyl)-1H-pyrrolo [2,3-b]pyridin-6-yl)-N-ethylacetamide]
